Patent publication US8889902B2, “Acetylsalicylic acid salts” (priority 2009, dated 2014)
Where “and” joins values, the source holds several entries; their conditions need not be identical. Equal values may be shown once.

Columns and labels:
[1] = tested on: tail bleeding; assay: Tail bleeding time during thrombosis experiment; type: in vivo, rats; conditions: for Tail bleeding time, %: control = 100
Experimental: Additionally during the thrombosis experiment rat tail bleeding time was measured. The tail was transected 5 mm from the tip with scalpel and the tail was immediately immersed into 37° C. warm isotonic saline until termination of bleeding was noted. Termination of bleeding was defined as the time of complete stop of bleeding with no recurrence of bleeding within the next 30 s.

[2] = tested on: adjuvant arthritis induced by Freund's adjuvant; assay: Adjuvant arthritis: paw volume and ankle joint; type: in vivo, Wistar rats; conditions: for Prevention %, paw volume Day 14 / Prevention %, paw volume Day 28: vs AdA
Description: Our experiments were scheduled to test the influence of MASA on the progress of adjuvant arthritis in comparison with MD and ASA. […] Each standard cage housed 7 rats with unlimited access to drinking water and granulated standard feed. […] All efforts were made to minimize animal suffering and to reduce the number of animals used. A modified standard procedure for inducting and evaluating the progress of chronic adjuvant arthritis was used (Bellavite P, Ortolani R, Conforti A, Immunology and Homeopathy. 3. Experimental Studies on Animal Models, Advance Access Publication 2.05, 2006, 171-186). […] The solutions of test substances were prepared ex tempore. […] Test solutions were introduced to animal p.o. by catheter into the stomach. […] The effects of test substances were evaluated using the following criteria: The oedema, i.e. the volume of hind paw was measured by oncometer. The percentage of prevention (inhibition of oedema) was calculated according to formula: P(%)=(Vc−Vt)/Vc×100, where Vc—paw volume in control group Vt—paw volume in test group P—Prevention in % (inhibition of oedema).

[3] = tested on: CRP; assay: CRP levels in blood, carrageneen inflammation model; type: in vivo, rats; conditions: 100 mg/kg
Experimental: To evaluate the intensity of the inflammation process the CRP levels were determined by standard method on analyzer ? INTEGRA 400+ ? at the end of experiment (5 hours after injection of carrageneen).

[4] = tested on: platelet aggregation; assay: Platelet aggregation in vitro, whole blood impedance aggregometry (Multiplate); type: cell-based, healthy donor; conditions: 10^−4
Experimental: Platelet aggregation was studied using whole blood impedance aggregometry on Multiplate (Multiple Platelet Function Analyzer, Dynabyte Medical, Germany) (Toth O et al, Thromb Haemost 2006; 96:781-788. […] Blood samples for in vitro experiment were collected from healthy donor B. […] In the ex vivo experiment blood was collected into plastic tubes covered with hirudin (Dynabyte Medical, Germany) from narcotized rats that were treated for 3 previous days with test substances p.o. The measurements were performed according to modified Dynabyte Medical protocol. […] After 5 min incubation and stirring at 37° C., measurements were initiated by adding of the appropriate agonist solution (sourced from Dynabyte Medical, Germany): 1) adenosine diphosphate (ADP)-ADP-Test. ADP stimulates platelet activation by the ADP receptors (P2Y 12 and other). […] 3) ADP HS test (prostaglandin E1 in combination with ADP). […] Aggregation curves were recorded for 6 min. and analyzed using Dynabyte Medical software. We calculated the following parameters of platelet aggregation: […] It is affected by the total height of the aggregation curve as well as by its slope and is best suited to express the overall platelet activity.

[5] = tested on: WBC, CRP, CIC in adjuvant arthritis; assay: Adjuvant arthritis: WBC, CRP and CIC in blood; type: in vivo, Wistar rats
Experimental: Our experiments were scheduled to test the influence of MASA on the progress of adjuvant arthritis in comparison with MD and ASA. Experiments were conducted on Wistar rats with starting body mass of 153-185 g. Rats were kept in climatized rooms at 22±1° C., relative humidity 60±5% and 12/12-hour light/darkness cycle. Each standard cage housed 7 rats with unlimited access to drinking water and granulated standard feed. All experiments were carried out in accordance with the European Community Council's Directive of 24 Nov. 1986 (86/609/EEC) relative to experimental animal care. All efforts were made to minimize animal suffering and to reduce the number of animals used.
A modified standard procedure for inducting and evaluating the progress of chronic adjuvant arthritis was used (Bellavite P, Ortolani R, Conforti A, Immunology and Homeopathy. 3. Experimental Studies on Animal Models, Advance Access Publication 2.05, 2006, 171-186). Rats were injected into the hind foot pad 0.1 ml and intraperitonealy with 0.05 ml of complete Freund's adjuvant solution.
Hematological indices were determined by standard methods on hematological analyzer ? PENTRA 120 ? , CRP was determined on ? INTEGRA 400+ ? . Levels of CIC in blood serum were determined spectrometrically, using […].

[6] = 5 mg/kg/d p.o., repeated, 3 days

SMILES: CC(=O)Oc1ccccc1C(=O)O [ASA, acetylsalicylic acid]
- Tail bleeding time ([1]; 5 mg/kg p.o., single dose): 13.8 ± 3.27 min
- Tail bleeding time, % ([1]; 5 mg/kg p.o., single dose): 155%
- Tail bleeding time [1, 6]: 17.8 ± 3.17^1 min
- Tail bleeding time, % [1, 6]: 207%
- Dimensions of ankle joint on Day 14 ([2]; 10 mg/kg daily p.o.): 7.2 ± 0.12 mm
- Dimensions of ankle joint on Day 28 ([2]; 10 mg/kg daily p.o.): 6.8 ± 0.14 mm
- Paw volume on Day 14 ([2]; 10 mg/kg daily p.o.): 2.53 ± 0.10 mL
- Paw volume on Day 28 ([2]; 10 mg/kg daily p.o.): 2.08 ± 0.12 mL
- Prevention %, paw volume Day 14 ([2]; 10 mg/kg daily p.o.): −7%
- Prevention %, paw volume Day 28 ([2]; 10 mg/kg daily p.o.): 7%
- Dimensions of ankle joint on Day 14 ([2]; 100 mg/kg daily p.o.): 6.9 ± 0.15 mm
- Dimensions of ankle joint on Day 28 ([2]; 100 mg/kg daily p.o.): 7.1 ± 0.16 mm
- Paw volume on Day 14 ([2]; 100 mg/kg daily p.o.): 2.35 ± 0.14 mL
- Paw volume on Day 28 ([2]; 100 mg/kg daily p.o.): 1.52 ± 0.07 mL
- Prevention %, paw volume Day 14 ([2]; 100 mg/kg daily p.o.): 3%
- Prevention %, paw volume Day 28 ([2]; 100 mg/kg daily p.o.): 32%
- CRP ([3]; 5 h after carrageneen): 0.20 ± 0.018 mg/L
- CRP increase % ([3]; carrageneen control = 100): 50%
- AUC ([4]; AA induced): 450 ± 24.8^2#@ AU*min and 450 ± 24.8^3a@ AU*min
- Amax ([4]; AA induced): 103.1 ± 5.9^2#@ AU and 103.1 ± 5.9^2a@ AU
- AUC ([4]; ADP induced): 883 ± 50.3 AU*min
- Amax ([4]; ADP induced): 151.7 ± 9.3 AU
- AUC ([4]; PGE1 + ADP induced): 961 ± 35.0 AU*min
- Amax ([4]; PGE1 + ADP induced): 162.5 ± 8.7 AU
- CIC units, Day 14 ([5]; 10 mg/kg daily p.o.): 10.8 ± 0.74 units
- CIC units, Day 28 ([5]; 10 mg/kg daily p.o.): 8.2 ± 0.53 units
- CRP, Day 14 ([5]; 10 mg/kg daily p.o.): 0.26 ± 0.01 mg/L
- CRP, Day 28 ([5]; 10 mg/kg daily p.o.): 0.19 ± 0.01 mg/L
- CIC units, Day 14 ([5]; 100 mg/kg daily p.o.): 15.0 ± 1.23 units
- CIC units, Day 28 ([5]; 100 mg/kg daily p.o.): 14.4 ± 1.66 units
- CRP, Day 14 ([5]; 100 mg/kg daily p.o.): 0.29 ± 0.01 mg/L
- CRP, Day 28 ([5]; 100 mg/kg daily p.o.): 0.18 ± 0.02 mg/L
